Assay results as given in patent US5869031A, “Depigmenting dermatological and/or cosmetic composition” (priority 1995, dated 1999).

What was measured:
[1] = UVA and UVB sunscreen activity, spectrophotometric study; type: physicochemical; details: extract titrated to 5% umbelliferone, Parsol MCX as comparison
[2] = Anti-radical activity on radical propagation (hydroxyl radicals), evaluated on DPHH; details: extract containing 5% umbelliferone; vitamin E as comparison
Method: Evaluation of the anti-radical activity
disappearance of the free radicals. Free radical traps act on the superoxide anion O2^- but also on the hydroxyl radicals. Thus, we have sought to evaluate the anti-radical activity on these two steps.
The activity on radical propagation, and thus on the hydroxyl radicals, is evaluated on DPHH, diphenyl-picrylhydrazyl hydrate, which is a stable, colored free radical.

specific extension coefficient at 310 nm [1] | IC50 on DPHH (radical propagation, hydroxyl radicals) [2] [µg/mL] | Compound
810 | – | CCCCC(CC)COC(=O)C=Cc1ccc(OC)cc1 (centres unmarked) [Parsol MCX]
– | 6 | vitamin E
